# Laboratory results: PMC9738927, “A Newly Identified Monoterpenoid-Based Small Molecule Able to Support the Survival of Primary Cultured Dopamine Neurons and Alleviate MPTP-Induced Toxicity In Vivo” (Molecules, 2022)
# How the values were obtained:
# [1] = tested on: nigrostriatal dopamine system of MPTP-treated mice; experiment: TH immunohistochemistry of striatum and substantia nigra in MPTP-treated mice; format: in vivo, C57Bl/6 male mice
# Experimental: The samples were collected 7 days after the last administration of PA96. Mice were anesthetized using terminal phenobarbital injection (50 mg/kg), perfused trans-cardially with PBS, and then 4% paraformaldehyde in PBS in accordance with. The brains were collected, treated, and embedded into paraffin blocks using the histological complex Microm (Fürth, Germany).
# To analyze the effect of PA96 in dopamine neurons in vivo, tyrosine hydroxylase immunohistochemistry was performed as described previously. The PFA-fixed and paraffin-embedded brains were cut into 5 µm thick sections (3 sections per slide), and every fifth slide was taken for TH staining. The sections were deparaffinized, followed by a citrate antigen retrieval procedure. Endogenous peroxidase was inactivated by 30 min incubation with 3% H2O2. The sections were blocked with 5% normal goat serum and then probed with monoclonal TH antibody (1:2000, Millipore Cat# MAB318 Lot# RRID:AB_2201528) overnight at +4 °C. The sections were washed, and biotinylated horse antimouse secondary antibody (1:200, Cat# BA-2001, Vector Laboratories, Burlingame, CA, USA) was applied for 1 h, followed by washing. […]
# The sections were scanned with an automated scanner (3DHistech, Budapest, Hungary), and the images were converted to 16-bit grayscale. […] The integrated optical densities in images were measured in ImageJ (NIH) and divided by area in pixels.
# MPTP-treated mice = experiment: Coat hanger test in the acute MPTP mouse model of PD; format: in vivo, C57Bl/6 male mice
# [2] = tested on: haloperidol-induced catalepsy; experiment: Haloperidol-induced catalepsy, parallel bars test; format: in vivo, male Wistar rats; settings: 1, 10, 20 mg/kg per os, haloperidol 1.5 mg/kg i.p.
# Experimental: Neuroleptic-induced catalepsy has long been used as an animal model for screening drugs for parkinsonism, as described before. Adult male Wistar rats were divided into four groups, each containing six animals. Group 1 received haloperidol 1.5 mg/kg in normal saline and served as the cataleptic control without any drug treatment. The studied compound PA96 was dissolved in saline containing 0.5% Tween 80 just before use. Groups 2, 3, and 4 received PA-96 in a dose of 1, 10, or 20 mg/kg per os accordingly; 10 min after the PA96 administration, catalepsy was induced by the intraperitoneal administration of haloperidol in a dose of 1.5 mg/kg body weight in normal saline. All the behavioral studies were performed at room temperature in a calm room without external interference. The severity of catalepsy was measured 30, 60, 120, 180, and 240 min after haloperidol administration using the method of parallel bars. The fore and hind limbs of a rat were placed on parallel bars (walls) to ensure that the animal’s back was straight, and the time spent by the animal in an immobilized state was recorded. The general duration of catalepsy and the percentage of cataleptic animals in the group were evaluated.
# [3] = tested on: MPP^+-treated primary midbrain dopamine neurons; experiment: Survival of MPP+-challenged cultured dopamine neurons (TH-positive cell count); format: cell-based, mouse
# Experimental: We developed a compound library containing 20 diol derivatives and screened them on cultured primary DA neurons (Supplementary Materials, Table S1). Compounds were taken at a dose of 0.1 and 1 μM (based on effective doses for the epoxydiol). Based on the screening results, we selected four compounds and tested them in a naïve and MPP^+-treated (1-methyl-4-phenylpyridinium (MPP^+), the neurotoxic metabolite of MPTP) DA culture at 1, 10, and 100 nM to select the compound with the lowest effective dose.
# The survival of cultured mouse DA neurons was assessed as described before. Briefly, naïve or MPP^+ (dopaminergic selective neurotoxin)-challenged embryonic midbrain neurons were cultured in the presence or absence of a diol-like compound. The number of survived DA neurons was estimated after immunocytochemical staining with antibodies recognizing the key enzyme of dopamine synthesis—tyrosine hydroxylase.
# naïve C57Bl/6 mice = experiment: Open field test in naïve mice; format: in vivo, C57Bl/6 male mice; settings: 1, 10, 20 mg/kg once per os, 1 h after dosing
# Experimental: The studied agent in a dose of 1 mg/kg, 10 mg/kg, and 20 mg/kg or saline was administered once per os in a water-Tween 80 solution to 8 mice per group of C57Bl/6 mice. The main markers of the locomotor activity movement distance (cm) and duration of locomotor activity (s) were registered with the open field test performed for 2 min using Tru Scan (USA), 1 h after the administration of the studied agent.
compound,measurement,setting,value
"C=C(C)[C@@H]1CC=C(C)[C@@H](Sc2nc[nH]n2)[C@@H]1O [PA96, (1R,2R,6S)-2-(1H-1,2,4-triazol-3-ylthio)-3-methyl-6-(prop-1-en-2-yl)cyclohex-3-enol]",increase of the number of TH-positive neurons in SN,"[1]; 1 mg/kg, compared to MPTP-treated mice",37%
same,density of TH-positive fibers in the striatum (loss induced by MPTP),[1]; 1 and 10 mg/kg,not alleviated
same,antiparkinsonian activity in vivo (effective dose),"MPTP-treated mice; MPTP mouse model, per os",1 mg/kg
same,coat hanger score,"MPTP-treated mice; MPTP-treated mice, 1 mg/kg, 60 s time point, MPTP 3.6 ± 1.0, p = 0.0324",6.7 ± 0.2
same,increase of movement time in coat hanger test,"MPTP-treated mice; MPTP-treated mice, 1 mg/kg, vs MPTP",40%
same,coat hanger score,"MPTP-treated mice; MPTP-treated mice, 10 mg/kg, p = 0.0622",trend toward increasing the score
same,catalepsy time,[2],significantly decreased
same,percentage of cataleptic animals,[2],significantly decreased
same,number of TH-positive neurons relative to VEH-treated wells,"[3]; MPP+ and 1 nM, p = 0.03",2.4 fold
same,inhibition at 0.1 µM,"[3]; Mus musculus, Neuron, 100 nM, compared to VEH-treated wells, read-out: Support effect / inhibition, MPP+-treated dopamine neurons, 100 nM",0%
same,"locomotor activity of naive animals (movement distance, duration)",naïve C57Bl/6 mice,did not activate
